According to patent US12016336B2 (priority 2020, dated 2024):
Where a name gives a salt, the structure may show the parent alone. Read-outs that look alike come from different tables or passages of the source.

Tests used:
[1] = type: physicochemical
[2] = room temperature, 90% H2O/D2O
[3] = type: physicochemical; remark: listed apart in the source
Solubility in water = type: physicochemical
[4] = type: physicochemical; remark: listed apart in the source
people = settings: exposure in the air; cited from earlier work
[5] = tested on: radish, peas, and lettuce plants; settings: Carter et al., cited from earlier work
corn = test: Growth of corn in pots exposed to dibutyldithiophosphate (Example 20); type: in vivo; settings: 4 weeks
Protocol: Corn was planted in 6″ TEKU pots. The pots were packed finger tight with potting mix #4 from Beautiful Land Products. The corn seeds were planted approximately 1.5 inches deep. Fifty seeds of corn were planted for every loading of dibutyldithiophosphate ammonium salt. After the seeds were added to the soil the dibutyldithiophosphate ammonium salt was added as a fully dissolved aqueous solution. Tap water (500 mL) was added to a measured amount of the salt to yield desired amount in 10 mL After mixing well for 10 minutes, the aqueous solution was added to each plant via syringe (10 mL) immediately around and on the seed. After adding the salt, the plants were moved outside in full sunlight until harvest. The corn plants were watered daily.
The corn was harvested after 4 weeks. Plant height was taken by straightening the corn plant out by the leaves and measuring from the base of the shoot to the longest point on the leaf. After removing the roots, the weight of the shoot and leaves was measured using a balance.
Statistical analysis was performed using IBM SPSS Statistics 25. Non-parametric Kruskal-Wallis test was performed to determine significance. Data represented are mean±standard error with ** indicating α<0.05 and * indicating α<0.1.

soybeans = test: Field trial: harvest yield of soybeans (Example 27); type: in vivo; settings: 2 kg per acre, side dressing, versus not exposed
Description: All essential plant nurtients (N, P, K, and S) were applied in non-limiting amounts. Prior to planting soybeans, the fields were fertilized with 60 lb acre of P2O5, 80 lb per acre of K20, and 20 lb per acre of sulfur. The soybean seeds were a 2.8-3.2 relative maturity planted at 120,000 to 140,000 seeds per acre. All field management were designed to effectively control weed and insect pests to optimize soybean growth and yield. The soybeans were planted and either 0, 0.5, 1.0, or 2.0 kg per acre of dibutyldithiophosphate was applied as a side dressing to the soybean plants. The dibutyldithiophosphate was dissolved in water and applied. The harvest weight was determined for each plot and corrected for slight differences in moisture content.

[6] = water buffered at pH 6.7, FIG. 4

SMILES: CCCCOP(=S)(S)OCCCC [Example 1, Dibutyldithiophosphate Ammonium Salt]
- Rate of first-step of hydrolysis (85° C.) ([1]; 85° C., 90% H2O/D2O): 0.00096 h⁻¹
- Time to complete hydrolysis ([1]; 85° C., 90% H2O/D2O, to phosphoric acid only): 180 days
- Hydrolysis slower than the compound of Example 2 ([1]; 85° C., versus Example 2): 3.5 ×
- Hydrolysis slower than the dithiophosphate of Example 3 ([1]; 85° C., versus Example 3): 7.4 ×
- Hydrolysis slower than the dithiophosphate of Example 4 ([1]; 85° C., versus Example 4): 1.4 ×
- Percent Degradation ([2]; 30 days, 31P NMR): <3%
- Release of H2S (rank among the dithiophosphates) [3, 6]: lowest

SMILES: CC(C)[C@@H]1CC[C@@H](C)C[C@H]1OP(=S)([S-])O[C@@H]1C[C@H](C)CC[C@H]1C(C)C.[K+] [Example 5]
- Solubility in water at 5 mM (Solubility in water; concentration of 5 mM): mostly insoluble in water
- Solubility in water of the potassium and triethylamine salts (Solubility in water): insoluble in water
- Release of H2S at 5 mM ([3]; pH 6.7): released H2S

SMILES: CC1(C)[C@@H]2CC[C@]1(C)[C@H](OP(=S)(S)O[C@@H]1C[C@H]3CC[C@@]1(C)C3(C)C)C2 [Example 7]
- Solubility in water of the potassium and triethylamine salts (Solubility in water): insoluble in water

SMILES: CC(C)(C)OP(=S)([S-])OC(C)(C)C.[Na+] [Example 8, Di(Tert-Butanol)Dithiophosphate Sodium Salt]
- ΔΔG^‡ ([4]; 25° C. versus 85° C.): 0.526 kcal/mol
- ΔH^‡ ([4]; rate constants measured from 25 to 85° C.): 27.84 kcal/mol
- Rate of hydrolysis slower at room temperature than at 85° C. ([1]; room temperature versus 85° C.): 2,600 ×
- Rate of first-step of hydrolysis ([1]; room temperature, 90% H2O/D2O): 0.0051 h⁻¹
- Percent degraded at day 12 ([2]; day 12): 62%
- Percent degraded at day 20 ([2]; day 20): 88%
- Release of H2S (rank among the dithiophosphates) [3, 6]: highest

SMILES: S=P(S)(Sc1ccccc1)Sc1ccccc1 [Example 13]
- Solubility in water of the potassium and triethylamine salts (Solubility in water): insoluble in water

SMILES: S=P1(S)OCCS1 (stereo not drawn) [Example 14]
- Release of H2S (rank among the dithiophosphates) ([3]; pH 6.7): highest

SMILES: S [Example H2S, hydrogen sulfide]
- Level immediately dangerous to life and health (people): 100 ppm

SMILES: C1COCCN1.COc1ccc(P(=S)(S)N2CCOCC2)cc1 (stereo not drawn) [GYY-4137]
- Growth of radish, peas, and lettuce plants [5]: increased the growth
- Harvest yield of radishes ([5]; milligram loadings): doubled

SMILES: CCCCOP(=S)(S)OCCCC [dibutyldithiophosphate]
- Increase in weight of the corn plants (corn; 1 mg added to the soil adjacent to the seed, versus plants grown without): 39%
- Weight of the corn plants (significance) (corn; 1, 10, 50, and 75 mg loadings): statistically significant improvements
- Heights of the corn plants (corn; all loadings): Little statistically significant difference
- Increase in harvest yield of soybeans (soybeans): 4.4%
